In brackets after ≈: the same amount, converted by molar mass.
Experiments:
Type in all cases: functional
[1] = tested on: Clostridioides difficile; assay: Antimicrobial activity against daptomycin-resistant Clostridium difficile NAP1 incubated anaerobically at 37 degC for 48 hrs by agar dilution method; conditions: NAP1, 48 h
[2] = tested on: Enterococcus faecium; assay: Antimicrobial activity against daptomycin-resistant Enterococcus faecium ATCC 6569 incubated anaerobically at 37 degC for 48 hrs by agar dilution method; conditions: ATCC 6569, 48 h
[3] = tested on: Clostridioides difficile; assay: Potency index, ratio of MIC for daptomycin to MIC for test compound against daptomycin-resistant Clostridium difficile NAP1 incubated anaerobically at 37 degC for 48 hrs by agar dilution method
[4] = tested on: Enterococcus faecium; assay: Potency index, ratio of MIC for daptomycin to MIC for test compound against Enterococcus faecium ATCC 6569 incubated anaerobically at 37 degC for 48 hrs by agar dilution method
[5] = tested on: Staphylococcus aureus; assay: Antimicrobial activity against daptomycin-non-susceptible Staphylococcus aureus 1145 incubated anaerobically at 37 degC for 48 hrs by agar dilution method; conditions: Staphylococcus aureus, 1145, 48 h
[6] = tested on: Staphylococcus aureus; assay: Antimicrobial activity against daptomycin-non-susceptible Staphylococcus aureus 1326 incubated anaerobically at 37 degC for 48 hrs by agar dilution method; conditions: Staphylococcus aureus, 1326, 48 h
[7] = tested on: Staphylococcus aureus; assay: Antimicrobial activity against daptomycin-non-susceptible Staphylococcus aureus 1616 incubated anaerobically at 37 degC for 48 hrs by agar dilution method; conditions: Staphylococcus aureus, 1616, 48 h
[8] = tested on: Staphylococcus aureus; assay: Antimicrobial activity against daptomycin-non-susceptible Staphylococcus aureus 5003 incubated anaerobically at 37 degC for 48 hrs by agar dilution method; conditions: Staphylococcus aureus, 5003, 48 h
[9] = tested on: Staphylococcus aureus; assay: Antimicrobial activity against daptomycin-non-susceptible Staphylococcus aureus 5004 incubated anaerobically at 37 degC for 48 hrs by agar dilution method; conditions: Staphylococcus aureus, 5004, 48 h
[10] = tested on: Staphylococcus aureus; assay: Antimicrobial activity against daptomycin-non-susceptible Staphylococcus aureus 5005 incubated anaerobically at 37 degC for 48 hrs by agar dilution method; conditions: Staphylococcus aureus, 5005, 48 h
[11] = tested on: Staphylococcus aureus; assay: Antimicrobial activity against daptomycin-non-susceptible Staphylococcus aureus 5006 incubated anaerobically at 37 degC for 48 hrs by agar dilution method; conditions: Staphylococcus aureus, 5006, 48 h
[12] = tested on: Staphylococcus aureus; assay: Antimicrobial activity against daptomycin-non-susceptible Staphylococcus aureus 5012 incubated anaerobically at 37 degC for 48 hrs by agar dilution method; conditions: Staphylococcus aureus, 5012, 48 h
[13] = tested on: Staphylococcus aureus; assay: Antimicrobial activity against daptomycin-non-susceptible Staphylococcus aureus 5014 incubated anaerobically at 37 degC for 48 hrs by agar dilution method; conditions: Staphylococcus aureus, 5014, 48 h
[14] = tested on: Staphylococcus aureus; assay: Antimicrobial activity against daptomycin-non-susceptible Staphylococcus aureus 5016 incubated anaerobically at 37 degC for 48 hrs by agar dilution method; conditions: Staphylococcus aureus, 5016, 48 h
[15] = tested on: Staphylococcus aureus; assay: Antimicrobial activity against daptomycin-non-susceptible Staphylococcus aureus 5017 incubated anaerobically at 37 degC for 48 hrs by agar dilution method; conditions: Staphylococcus aureus, 5017, 48 h
[16] = tested on: Staphylococcus aureus; assay: Antimicrobial activity against daptomycin-non-susceptible Staphylococcus aureus 5033 incubated anaerobically at 37 degC for 48 hrs by agar dilution method; conditions: Staphylococcus aureus, 5033, 48 h
[17] = tested on: Staphylococcus aureus; assay: Antimicrobial activity against daptomycin-non-susceptible Staphylococcus aureus 5059 incubated anaerobically at 37 degC for 48 hrs by agar dilution method; conditions: Staphylococcus aureus, 5059, 48 h
[18] = tested on: Staphylococcus aureus; assay: Antimicrobial activity against daptomycin-non-susceptible Staphylococcus aureus 5060 incubated anaerobically at 37 degC for 48 hrs by agar dilution method; conditions: Staphylococcus aureus, 5060, 48 h
[19] = tested on: Staphylococcus aureus; assay: Antimicrobial activity against daptomycin-non-susceptible Staphylococcus aureus 5063 incubated anaerobically at 37 degC for 48 hrs by agar dilution method; conditions: Staphylococcus aureus, 5063, 48 h
[20] = tested on: Staphylococcus aureus; assay: Antimicrobial activity against daptomycin-non-susceptible Staphylococcus aureus 5080 incubated anaerobically at 37 degC for 48 hrs by agar dilution method; conditions: Staphylococcus aureus, 5080, 48 h
[21] = tested on: Staphylococcus aureus; assay: Antimicrobial activity against daptomycin-non-susceptible Staphylococcus aureus 5091 incubated anaerobically at 37 degC for 48 hrs by agar dilution method; conditions: Staphylococcus aureus, 5091, 48 h
[22] = tested on: Staphylococcus aureus; assay: Potency index, ratio of MIC for daptomycin to MIC for test compound against daptomycin-non-susceptible Staphylococcus aureus 1326 incubated anaerobically at 37 degC for 48 hrs by agar dilution method
[23] = tested on: Staphylococcus aureus; assay: Potency index, ratio of MIC for daptomycin to MIC for test compound against daptomycin-non-susceptible Staphylococcus aureus 1616 incubated anaerobically at 37 degC for 48 hrs by agar dilution method
[24] = tested on: Staphylococcus aureus; assay: Potency index, ratio of MIC for daptomycin to MIC for test compound against daptomycin-non-susceptible Staphylococcus aureus 5006 incubated anaerobically at 37 degC for 48 hrs by agar dilution method
[25] = tested on: Staphylococcus aureus; assay: Potency index, ratio of MIC for daptomycin to MIC for test compound against daptomycin-non-susceptible Staphylococcus aureus 5014 incubated anaerobically at 37 degC for 48 hrs by agar dilution method
[26] = tested on: Staphylococcus aureus; assay: Potency index, ratio of MIC for daptomycin to MIC for test compound against daptomycin-non-susceptible Staphylococcus aureus 5034 incubated anaerobically at 37 degC for 48 hrs by agar dilution method
[27] = tested on: Staphylococcus aureus; assay: Potency index, ratio of MIC for daptomycin to MIC for test compound against daptomycin-non-susceptible Staphylococcus aureus 5059 incubated anaerobically at 37 degC for 48 hrs by agar dilution method
[28] = tested on: Staphylococcus aureus; assay: Potency index, ratio of MIC for daptomycin to MIC for test compound against daptomycin-non-susceptible Staphylococcus aureus 5063 incubated anaerobically at 37 degC for 48 hrs by agar dilution method
[29] = tested on: Staphylococcus aureus; assay: Potency index, ratio of MIC for daptomycin to MIC for test compound against daptomycin-non-susceptible Staphylococcus aureus 5076 incubated anaerobically at 37 degC for 48 hrs by agar dilution method
[30] = tested on: Staphylococcus aureus; assay: Potency index, ratio of MIC for daptomycin to MIC for test compound against daptomycin-non-susceptible Staphylococcus aureus 5080 incubated anaerobically at 37 degC for 48 hrs by agar dilution method

Question: How did the MIC [1] turn out when `CCCCCc1ccc(/C(C)=C/C(=O)N[C@@H](Cc2c[nH]c3ccccc23)C(=O)N[C@H](CC(N)=O)C(=O)N[C@@H](CC(=O)O)C(=O)N[C@@H]2C(=O)NCC(=O)N[C@@H](CCCN)C(=O)N[C@@H](CC(=O)O)C(=O)N[C@H](C)C(=O)N[C@@H](CC(=O)O)C(=O)NCC(=O)N[C@H](CO)C(=O)N[C@@H]([C@@H](C)CC(=O)O)C(=O)N[C@@H](CC(=O)c3ccccc3N)C(=O)O[C@@H]2C)cc1` was run?
Answer: 0.5 µg/mL (≈ 0.297 µM)

Question: What about the MIC [2] of the same compound?
Answer: 4 µg/mL (≈ 2.38 µM)

Question: And the Ratio [3]?
Answer: 4

Question: And the Ratio [4]?
Answer: >8

Question: What about the MIC [5] of the same compound?
Answer: 0.25 µg/mL (≈ 0.149 µM)

Question: What about the MIC [6] of the same compound?
Answer: 0.5 µg/mL (≈ 0.297 µM)

Question: And the MIC [7]?
Answer: 2 µg/mL (≈ 1.19 µM)

Question: And the MIC [8]?
Answer: 0.25 µg/mL (≈ 0.149 µM)

Question: What about the MIC [9] of the same compound?
Answer: 0.25 µg/mL (≈ 0.149 µM)

Question: And the MIC [10]?
Answer: 1 µg/mL (≈ 0.595 µM)

Question: And the MIC [11]?
Answer: 0.5 µg/mL (≈ 0.297 µM)

Question: What about the MIC [12] of the same compound?
Answer: 0.25 µg/mL (≈ 0.149 µM)

Question: And the MIC [13]?
Answer: 0.25 µg/mL (≈ 0.149 µM)

Question: And the MIC [14]?
Answer: 0.5 µg/mL (≈ 0.297 µM)

Question: What about the MIC [15] of the same compound?
Answer: 0.5 µg/mL (≈ 0.297 µM)

Question: And the MIC [16]?
Answer: 0.25 µg/mL (≈ 0.149 µM)

Question: What about the MIC [17] of the same compound?
Answer: 1 µg/mL (≈ 0.595 µM)

Question: And the MIC [18]?
Answer: 1 µg/mL (≈ 0.595 µM)

Question: And the MIC [19]?
Answer: 1 µg/mL (≈ 0.595 µM)

Question: What about the MIC [20] of the same compound?
Answer: 1 µg/mL (≈ 0.595 µM)

Question: And the MIC [21]?
Answer: 0.5 µg/mL (≈ 0.297 µM)

Question: What about the Ratio [22] of the same compound?
Answer: 2

Question: What about the Ratio [23] of the same compound?
Answer: 2

Question: What about the Ratio [24] of the same compound?
Answer: 2

Question: And the Ratio [25]?
Answer: 2

Question: And the Ratio [26]?
Answer: 2

Question: What about the Ratio [27] of the same compound?
Answer: 2

Question: What about the Ratio [28] of the same compound?
Answer: 2

Question: And the Ratio [29]?
Answer: 2

Question: And the Ratio [30]?
Answer: 2
